Test results reported in ChEMBL document CHEMBL3137356, “MMV Box Cryptosporidium parvum screening set”.

Tested on: Cryptosporidium parvum
Assay: MMV: Cryptosporidium parvum oocysts (Iowa Strain) were prepared for use by treatment with 10 mM HCl (37 degrees C, 10 min) followed by 2 mM sodium taurocholate in phosphate-buffered saline (PBS) with Ca2+ and Mg2+ (16 degrees C, 10 min) in order to stimulate excystation. The high-throughput screen was carried out by inoculating >90% confluent human ileocecal adenocarcinoma (HCT-8) cells (ATCC) with ~5.5 x 10^3 primed oocysts per well. Experimental compounds or DMSO (vehicle) were added three hours after infection, and cells were incubated for 48 hours.
Assay type: functional

SMILES | Inhibition [%]
CCOc1ccc(Nc2c3ccccc3nc3ccccc23)cc1.Cl | 26.95
CN1CCN(c2nc(Nc3ccc(O)cc3)nc3ccccc23)CC1.Cl | -22.12
CCCCc1c(CCC)c(=N)c2ccccc2n1C.I | 11.94
Oc1ccc(Cl)cc1CNc1nc2ccccc2[nH]1 | -2.947
CCn1c(CN2CCN(Cc3ccccc3)CC2)nc2cc(NC(=O)c3cccs3)ccc21 | -14.21
CCC(C)NCC(O)(c1ccc(Cl)cc1)c1ccc(Cl)cc1 (stereo not drawn) | -5.937
CCOC(=O)c1cnc2ccc(CC)cc2c1O | -16.47
Cc1ccc(C(=O)c2oc3ccc4c(C)cc(=O)oc4c3c2C)cc1 | 28.07
O=C(NC1CCCCC1)C(c1cccs1)N(CCc1ccccc1)C(=O)c1ccco1 (stereo not drawn) | -24.45
COc1ccc(C(O)(CCC(C)C)C(CN2CCOCC2)c2ccc(Cl)cc2)cc1.Cl (stereo not drawn) | -51.44
FC(F)(F)c1cccc(Nc2nc3ccccc3nc2Nc2cccc(C(F)(F)F)c2)c1 | -14.38
CCOC(=O)c1cnc2ccc(OC)cc2c1Nc1ccc(N2CCN(C)CC2)cc1 | -40.43
O=C(c1ccccc1F)N(Cc1ccc(Cl)cc1)c1ccccn1 | -0.1452
CCC(c1ccccc1)c1nn2c(-c3cccs3)nnc2s1 (stereo not drawn) | -11.07
CCOc1ccc(CCNC(=O)c2cccs2)cc1OCC | 10.2
COc1ccc(CNC2CCN(c3ccc(NC(=O)c4cccc(Cl)c4)cc3)CC2)cc1OC | -38.21
O=c1cc(NC2CCN(CCCc3ccccc3)CC2)c2cc(Cl)ccc2o1 | -2.261
CC1(c2ccccc2)Nc2ccccc2-c2nc3ccccc3n21 (stereo not drawn) | 30.85
Cc1cc(Nc2ccc(C)c(Cl)c2)n2nc(C(F)(F)F)nc2n1 | 4.308
O=C(CCc1ccco1)NC1CCN(CC2(c3ccc(Cl)cc3)CCC2)CC1 | -27.18
Cc1cccc(N2C(=O)C3C(C2=O)C2(c4ccccc4)C(=O)C3(c3ccccc3)C(c3ccc4c(c3)OCO4)=C2c2ccc3c(c2)OCO3)c1 (stereo not drawn) | 1.02
CC(C)(C)c1ccc(C(=O)Nc2c3c(nn2-c2cccc(Cl)c2)CSC3)cc1 | 7.325
CN1C=C(c2ccc3ccccc3n2)C(c2c[nH]c3ccccc23)c2ccccc21 (stereo not drawn) | -24.69
Cc1cc(C)cc(Nc2cc(C)nc3nc(C(F)(F)F)nn23)c1 | -21.92
O=C(CSc1ccc2nnc(-c3cccc(F)c3)n2n1)Nc1ccc2c(c1)OCO2 | -19.97

SMILES | Inhibition [%]
CCCC(c1nnnn1C1CCCCC1)N1CCN(C(=O)c2ccco2)CC1.Cl (stereo not drawn) | -55.52
CC(O)(c1ccc(Cl)cc1)C(CN1CCCCC1)c1ccccc1.Cl (stereo not drawn) | 15.77
CCn1nc(-c2ccc(C(=O)OC)cc2)nc2c(=O)n(C)c(=O)nc1-2 | -16.23
CCOc1ccc2c(c1)CN(Cc1ccc(Cl)cc1)CO2 | -64.93
CCOc1ccc(-n2cc(-c3ccccc3)c3c(SCc4cc(C)ccc4C)ncnc32)cc1 | -2.262
COc1ccc(-n2ccnc2SCC(=O)Nc2cc(C)ccc2C)c(OC)c1 | -14.53
c1ccc(CNc2nc(Nc3ccccc3)nc3ccccc23)cc1 | 87.13
COc1ccc(C=C2SC(Nc3ccc(F)cc3)=NC2=O)c(OC)c1 | 36.03
COc1ccc(CCNC(=O)c2cc(S(=O)(=O)N3CC(C)CC(C)C3)ccc2Sc2ccc(F)cc2)cc1OC (stereo not drawn) | 16.29
C[n+]1c2ccccc2nc2ccc(NCCO)cc21 | -27.1
COCCN(C(=O)Cc1cccs1)C(C(=O)NCc1ccc(OC)cc1)c1ccc(C(C)C)cc1 (stereo not drawn) | 3.107
Cc1ccc(S(=O)(=O)c2c(COC(=O)c3cccc(C)c3)c(-c3ccccc3)nn2C)cc1 | -24.68
Cc1ccc(N2C3c4ccccc4N(S(=O)(=O)c4ccc(C)cc4)C2c2ccccc2N3S(=O)(=O)c2ccc(C)cc2)cc1 | -51.15
CC(C)(C)c1ccc2c(c1)CN(Cc1ccc(Cl)cc1)CO2 | -0.2226
Cc1cc(Nc2cccc(F)c2)nc(NCc2ccccc2)n1 | -34.09
COc1ccc(-c2c(C)nn3c(N)c(C#N)cnc23)cc1OC | -20.9
Clc1ccc2c(N3CCCC3)ccnc2c1 | -28.37
CCOc1cc2c(cc1OCC)C(c1cc(Cl)c(O)c(OCC)c1)NCC2 (stereo not drawn) | -10.58
CCCCNc1nc(NC(C)(C)C)nc(NC(C)(C)C)n1 | 20.51
COc1cc(-c2nc(-c3ccccc3)c(-c3ccccc3)[nH]2)cc(OC)c1O | -1.324
COc1ccc(Nc2nc(N/N=C/c3ccc(O)cc3)nc(Nc3ccc([N+](=O)[O-])cc3)n2)cc1 | -49.8
O=C(Nc1ccccc1O)c1ccc(-c2ccc(Cl)cc2Cl)o1 | -8.773
CCc1ccc(Nc2cc(C)c3ccc(O)cc3n2)cc1.Cl | -30.31
COC(=O)c1ccc(C2C3=C(O)CC(c4ccc(F)cc4)CC3=Nc3ccccc3N2C(=O)c2ccccc2)cc1 (stereo not drawn) | -18.81
Cc1cc(Nc2ccc(OCc3ccccc3)cc2)nc2cc(O)ccc12 | -18.86

SMILES | Inhibition [%]
O=C(NC1CCN(Cc2ccccc2)CC1)c1cc2nc(-c3ccc(Cl)s3)cc(C(F)(F)F)n2n1 | -21.67
O=C1c2ccccc2-c2nnc(-c3ccc(Br)cc3)cc21 | -13.35
COC(=O)c1ccc(Cl)c2c1C1C=CCC1C(c1cccc3ccccc13)N2 (stereo not drawn) | -26.02
Cc1cc(N(C)C)nc(Nc2ccc(NC(=O)Nc3ccccc3)cc2)n1 | -29.16
O=C(Nc1cccc(C2=NCCN2)c1)Nc1cccc(C2=NCCN2)c1 [IMIDOCARB] | 9.453
Br.CCN(CC)S(=O)(=O)c1ccc(-c2csc(Nc3ccc(C)c(C)c3)n2)cc1 | -28.35
COc1ccc2nc(C)cc(Nc3cccc(O)c3)c2c1.Cl | -14.76
COc1ccc(CCN2C(=O)c3[nH]nc(-c4cc(Cl)c(C)cc4O)c3C2c2ccccc2F)cc1 (stereo not drawn) | 10.68
O=c1c2c([nH]c3ccccc13)CCCC2 | 14.89
Oc1ccc(-c2nc(-c3ccc4oc5ccc(-c6[nH]c(-c7ccc(O)cc7)nc6-c6ccccc6)cc5c4c3)c(-c3ccccc3)[nH]2)cc1 | -17.83
COc1nc(Nc2ccc(C(C)C)cc2)nc(OC)n1 | 4.363
O=C(Nc1ccc(Cl)cc1)N1CCN(c2ccc3nncn3n2)CC1 | 64.92
COc1ccc(-c2nc3cc(Cc4ccc5[nH]c(-c6ccc(OC)cc6)nc5c4)ccc3[nH]2)cc1 | 35.52
O=C(Nc1nc(-c2ccccn2)cs1)c1ccccc1Br | 62.15
COc1cc(-c2nc(-c3ccc(Sc4ccccc4)cc3)c(-c3ccccc3)[nH]2)cc(OC)c1O | -39.67
Cc1ccccc1OCCSc1nc2ccc(NC(=O)c3ccccc3)cc2s1 | 17.58
O=c1nc(C=Cc2ccc(Br)cc2)oc2ccccc12 | 36.68
OC1=C2C(=Nc3ccccc3SC2c2ccccc2)c2ccccc21 (stereo not drawn) | -46.02
O=C(Nc1ccc(N2CCCCC2)c(Cl)c1)c1ccc(Br)o1 | -27.15
O=C(CCl)NCCOc1ccc(Cl)cc1Cl | 7.535
CCCc1c(C)nc2ccc(Br)cc2c1O | -49.14
COc1ccc(C2c3ccc4ccccc4c3Oc3ncn(CCCn4ccnc4)c(=N)c32)cc1OC (stereo not drawn) | 5.542
CCN(CC)CCNc1ncnc2c1[nH]c1ccc(Br)cc12 | -47.02
